According to ChEMBL document CHEMBL6134849, “A Water-Soluble Aggregation-Induced Emission Photosensitizer with Intrinsic Antibacterial Activity as an Antiplanktonic and Antibiofilm Therapeutic Agent” (J Med Chem, 2025):
The source made the active and inactive calls. No cut-off for these calls is given here.

Tests used:
[1] = Induction of type-I ROS generation in PBS assessed as increase in nonspecific ROS by measuring increase in DHR123 fluorescence intensity at 10 uM irradiated with 660 nm 60 mW/cm2 light for 15 mins by DHR123 probe based plate reader analysis; format: functional
[2] = Induction of type-I ROS generation in PBS assessed as increase in hydroxyl radical by measuring increase in HPF fluorescence intensity at 10 uM irradiated with 660 nm 60 mW/cm2 light for 15 mins by HPF probe based plate reader analysis; format: functional
[3] = Induction of […] ROS generation in PBS assessed as increase in hydroxyl radical by measuring increase in HPF fluorescence intensity at 10 uM irradiated with 660 nm 60 mW/cm2 light for 15 mins by HPF probe based plate reader analysis; format: functional
[4] = Induction of type-II ROS generation in PBS assessed as increase in singlet oxygen by measuring increase in SOSG fluorescence intensity at 10 uM irradiated with 660 nm 60 mW/cm2 light for 15 mins by SOSG probe based plate reader analysis; format: functional
Cell membrane [5] = assay: Induction of cell membrane depolarization in Staphylococcus aureus assessed as increase in fluorescence intensity in absence of light irradiation by Disc3(5) dye based fluorescence assay; format: subcellular
Cell membrane [6] = assay: Induction of cell membrane damage in Staphylococcus aureus at 12.5 to 25 uM incubated for 3 hrs under dark condition by scanning electron microscopic analysis; format: subcellular; conditions: dose 12.5-25 µM
[7] = molecular target: DNA gyrase (Staphylococcus aureus) (UniProt P0A0K8+P20831); assay: Inhibition of Staphylococcus aureus DNA gyrase supercoiling assessed as decrease in supercoiled DNA band intensity using relaxed pBR322 as substrate at 25 uM incubated for 30 mins in absence of light irradiation by gel based method; format: protein-complex assay
Staphylococcus aureus [8] = assay: Downregulation of ftsA expression level in Staphylococcus aureus at 6.25 uM incubated for 1 hr in absence of light irradiation; format: functional
Staphylococcus aureus [9] = assay: Downregulation of sle1 expression level in Staphylococcus aureus at 6.25 uM incubated for 1 hr in absence of light irradiation; format: functional
Staphylococcus aureus [10] = assay: Downregulation of spoVG expression level in Staphylococcus aureus at 6.25 uM incubated for 1 hr in absence of light irradiation; format: functional
Staphylococcus aureus [11] = assay: Downregulation of murB expression level in Staphylococcus aureus at 6.25 uM incubated for 1 hr in absence of light irradiation; format: functional
Staphylococcus aureus [12] = assay: Downregulation of murF expression level in Staphylococcus aureus at 6.25 uM incubated for 1 hr in absence of light irradiation; format: functional
Staphylococcus aureus [13] = assay: Downregulation of glmM expression level in Staphylococcus aureus at 6.25 uM incubated for 1 hr in absence of light irradiation; format: functional
Staphylococcus aureus [14] = assay: Downregulation of uppP expression level in Staphylococcus aureus at 6.25 uM incubated for 1 hr in absence of light irradiation; format: functional
Staphylococcus aureus [15] = assay: Downregulation of murI expression level in Staphylococcus aureus at 6.25 uM incubated for 1 hr in absence of light irradiation; format: functional
Staphylococcus aureus [16] = assay: Downregulation of serS expression level in Staphylococcus aureus at 6.25 uM incubated for 1 hr in absence of light irradiation; format: functional
Staphylococcus aureus [17] = assay: Downregulation of ddl expression level in Staphylococcus aureus at 6.25 uM incubated for 1 hr in absence of light irradiation; format: functional
Staphylococcus aureus [18] = assay: Downregulation of femB expression level in Staphylococcus aureus at 6.25 uM incubated for 1 hr in absence of light irradiation; format: functional
Staphylococcus aureus [19] = assay: Downregulation of glyQS expression level in Staphylococcus aureus at 6.25 uM incubated for 1 hr in absence of light irradiation; format: functional
Staphylococcus aureus [20] = assay: Downregulation of thrS expression level in Staphylococcus aureus at 6.25 uM incubated for 1 hr in absence of light irradiation; format: functional
Staphylococcus aureus [21] = assay: Downregulation of asnS expression level in Staphylococcus aureus at 6.25 uM incubated for 1 hr in absence of light irradiation; format: functional
Cell membrane [22] = assay: Induction of cell membrane damage in Staphylococcus aureus assessed as DNA leakage at 10 uM preincubated with compound for 20 mins followed by 600 nm light irradiation for 45 min by absorption based plate reader analysis; format: subcellular; conditions: time 65.0 min
Cell membrane [23] = assay: Induction of cell membrane damage in Pseudomonas aeruginosa assessed as DNA leakage at 10 uM preincubated with compound for 20 mins followed by 600 nm light irradiation for 45 min by absorption based plate reader analysis; format: subcellular; conditions: time 65.0 min
Cell membrane [24] = assay: Induction of cell membrane damage in Pseudomonas aeruginosa assessed as protein leakage at 10 uM preincubated with compound for 20 mins followed by 600 nm light irradiation for 45 min by absorption based plate reader analysis; format: subcellular; conditions: time 65.0 min
Cell membrane [25] = assay: Induction of cell membrane damage in Pseudomonas aeruginosa assessed as bacterial cell collapse at 10 uM preincubated with compound for 20 mins followed by 600 nm light irradiation for 45 min by SEM analysis; format: subcellular; conditions: time 65.0 min
Staphylococcus aureus [26] = assay: Downregulation of hlgC protein expression in Staphylococcus aureus under light irradiation; format: functional
[27] = Cytotoxicity against human HFF-1 cells assessed as cell viability at 40 uM in presence of 600 nm light irradiation for 45 mins by MTT assay relative to control; format: toxicity, cell-based; conditions: read-out: Activity
Pseudomonas aeruginosa = assay: In vivo antibacterial activity against […] Pseudomonas aeruginosa ATCC 27853 infected in female BALB/c mouse skin wound infection model assessed as reduction in wound area at 90 uM pre-infected with bacteria for 24 hrs followed by topical compound addition for 10 mins in presence of 600 nm 60 mW/cm2 light irradiation for 15 mins and measured on day 4; format: functional, organism-based; conditions: time 4.0 day
Staphylococcus aureus [28] = assay: In vivo antibacterial activity against methicillin-resistant Staphylococcus aureus ATCC 43300 infected in female BALB/c mouse skin wound infection model assessed as reduction in inflammatory cell infiltration in wound at 90 uM pre-infected with bacteria for 24 hrs followed by topical compound addition for 10 mins in presence of 600 nm 60 mW/cm2 light irradiation for 15 mins and measured on day 6 by H and E staining based analysis; format: functional, organism-based; conditions: time 6.0 day
Staphylococcus aureus [29] = assay: In vivo antibacterial activity against methicillin-resistant Staphylococcus aureus ATCC 43300 infected in female BALB/c mouse skin wound infection model assessed as collagen deposition in wound at 90 uM pre-infected with bacteria for 24 hrs followed by topical compound addition for 10 mins in presence of 600 nm 60 mW/cm2 light irradiation for 15 mins and measured on day 6 by H and E staining based analysis; format: functional, organism-based; conditions: time 6.0 day
Staphylococcus aureus [30] = assay: Antibiofilm activity against Staphylococcus aureus assessed as bacterial eradication by measuring green fluorescence signal at 10 uM incubated for 1 hrs in presence of light irradiation by calcein-AM fluorescence dye based analysis; format: functional, organism-based
Staphylococcus aureus [31] = assay: Selective drug uptake in Staphylococcus aureus co-cultured with human HFF-1 cells by measuring fluorescence signal at 10 uM incubated for 20 mins; format: ADME, organism-based; conditions: hff-1, 20 min

Sequence of DNA gyrase (Staphylococcus aureus) (P0A0K8 2-644 limits assumed): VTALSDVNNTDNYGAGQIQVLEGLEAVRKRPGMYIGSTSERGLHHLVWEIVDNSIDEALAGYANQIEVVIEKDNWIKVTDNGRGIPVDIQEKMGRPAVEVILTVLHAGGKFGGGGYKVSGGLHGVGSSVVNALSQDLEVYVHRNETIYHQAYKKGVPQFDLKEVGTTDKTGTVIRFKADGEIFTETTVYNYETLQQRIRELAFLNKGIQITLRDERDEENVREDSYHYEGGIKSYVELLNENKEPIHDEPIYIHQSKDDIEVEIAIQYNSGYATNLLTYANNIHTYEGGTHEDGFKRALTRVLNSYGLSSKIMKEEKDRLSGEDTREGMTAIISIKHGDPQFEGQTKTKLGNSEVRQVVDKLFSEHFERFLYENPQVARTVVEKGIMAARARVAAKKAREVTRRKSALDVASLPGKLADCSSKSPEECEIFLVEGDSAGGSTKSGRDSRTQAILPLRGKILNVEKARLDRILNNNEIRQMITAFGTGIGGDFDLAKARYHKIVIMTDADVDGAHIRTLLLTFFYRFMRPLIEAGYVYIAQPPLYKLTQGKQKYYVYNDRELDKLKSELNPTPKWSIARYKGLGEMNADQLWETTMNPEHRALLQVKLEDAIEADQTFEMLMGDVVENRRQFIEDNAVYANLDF
Sequence of DNA gyrase (Staphylococcus aureus) (P20831 whole entry partner): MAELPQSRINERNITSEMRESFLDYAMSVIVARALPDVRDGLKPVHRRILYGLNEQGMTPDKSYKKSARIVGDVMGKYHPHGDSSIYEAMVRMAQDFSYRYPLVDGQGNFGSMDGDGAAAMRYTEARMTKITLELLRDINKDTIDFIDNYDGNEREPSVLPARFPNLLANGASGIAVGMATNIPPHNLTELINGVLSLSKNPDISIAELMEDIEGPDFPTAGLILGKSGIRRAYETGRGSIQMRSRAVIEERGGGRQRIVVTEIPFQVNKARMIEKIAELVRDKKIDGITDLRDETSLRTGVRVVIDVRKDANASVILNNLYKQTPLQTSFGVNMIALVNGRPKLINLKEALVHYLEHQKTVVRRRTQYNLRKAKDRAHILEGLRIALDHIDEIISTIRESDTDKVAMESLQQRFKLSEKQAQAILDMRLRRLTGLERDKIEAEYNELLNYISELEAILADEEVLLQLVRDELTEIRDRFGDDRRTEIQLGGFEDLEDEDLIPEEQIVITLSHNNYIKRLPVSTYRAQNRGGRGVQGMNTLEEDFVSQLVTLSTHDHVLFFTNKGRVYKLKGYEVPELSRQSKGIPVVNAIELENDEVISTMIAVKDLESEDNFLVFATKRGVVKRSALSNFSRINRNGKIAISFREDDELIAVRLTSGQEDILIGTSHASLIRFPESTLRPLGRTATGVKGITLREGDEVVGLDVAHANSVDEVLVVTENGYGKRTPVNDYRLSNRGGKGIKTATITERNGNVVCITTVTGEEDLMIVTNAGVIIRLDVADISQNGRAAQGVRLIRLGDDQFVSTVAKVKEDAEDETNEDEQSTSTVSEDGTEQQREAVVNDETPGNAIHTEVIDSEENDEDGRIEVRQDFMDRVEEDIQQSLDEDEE

Structure (SMILES): C#CCC[n+]1c(/C=C/c2ccc(-c3ccc(N(c4ccc(OCCC[N+](C)(C)C)cc4)c4ccc(OCCC[N+](C)(C)C)cc4)cc3)s2)sc2ccccc21.[Br-].[Br-].[Br-]
- Activity [1]: Active
- Activity [2]: Active
- Activity [3]: Active
- Activity [4]: Active
- Activity (Cell membrane [5]): Dose-dependent-effect
- Activity (Cell membrane [6]): Active
- inhibition [7]: Active
- Activity (Staphylococcus aureus [8]): Active
- Activity (Staphylococcus aureus [9]): Active
- Activity (Staphylococcus aureus [10]): Active
- Activity (Staphylococcus aureus [11]): Active
- Activity (Staphylococcus aureus [12]): Active
- Activity (Staphylococcus aureus [13]): Active
- Activity (Staphylococcus aureus [14]): Active
- Activity (Staphylococcus aureus [15]): Active
- Activity (Staphylococcus aureus [16]): Active
- Activity (Staphylococcus aureus [17]): Active
- Activity (Staphylococcus aureus [18]): Active
- Activity (Staphylococcus aureus [19]): Active
- Activity (Staphylococcus aureus [20]): Active
- Activity (Staphylococcus aureus [21]): Active
- Activity (Cell membrane [22]): Active
- Activity (Cell membrane [23]): Active
- Activity (Cell membrane [24]): Active
- Activity (Cell membrane [25]): Active
- Activity (Staphylococcus aureus [26]): Active
- viability at 0.75 h, 40 µM [27]: < 90%
- Activity (Pseudomonas aeruginosa): Active
- Activity (Staphylococcus aureus [28]): Active
- Activity (Staphylococcus aureus [29]): Active
- Activity (Staphylococcus aureus [30]): Active
- Drug uptake (Staphylococcus aureus [31]): Active
